From article PMC3624624 (Bioorganic & medicinal chemistry letters, 2013) come the findings set out here.

The test system of one series is H9. The series can be described thus: MTS toxicity on H9. The series is classed as cell-based. The conditions noted are these: H9, 72 h, concentrations up to 4 μM, data not shown.
The target of series [1] is T1, CXCR4 (Homo sapiens, UniProt P61073). In words: Fluorescent T-140/CXCR4 cross-link inhibition. The series is classed as binding.
Another series addresses CD4 (Homo sapiens, UniProt P01730). The series can be described thus: Inhibition of binding of control anti-CD4 mAb Sim.2 to cells. The series is classed as cell-based. The conditions noted are these: titration, H9 cells and primary T cell blasts, Fig. 2B.
For series [2], the target named is T1, CXCR4. The series can be described thus: Inhibition of binding of anti-CXCR4 mAbs to cells. The format is cell-based. To be noted: for inhibition of binding of anti-CXCR4 mAb 12G5 / inhibition of binding of anti-CXCR4 mAb 44708 / inhibition of binding of anti-CXCR4 mAb 44716 / inhibition of binding of anti-CXCR4 mAb 44717: 3 μM, Fig. 2C; for blocking of anti-CXCR4 mAb 44716 binding: H9 lymphoma cells, 1 μM compound, Fig. 2A; for inhibition of anti-CXCR4 mAb 12G5 binding: titration, H9 cells and primary T cell blasts, Fig. 2B.

The test system of a further series is PHA blast cultures. The series can be described thus: MTS toxicity on PHA blast cultures. The series is classed as cell-based. To be noted: 72 h, concentrations up to 4 μM, data not shown.
A further series has as its system TZM-bl. In words: MTS toxicity on TZM-bl. The format is cell-based. The conditions noted are these: 72 h, concentrations up to 4 μM, data not shown.
The next series relates to X4 strains of HIV-1. In words: TZM-bl HIV-1 neutralization assay, X4 isolates. To be noted: TZM-bl cells, Fig. 3B. The series is classed as cell-based.

T1 sequence (P61073 whole entry): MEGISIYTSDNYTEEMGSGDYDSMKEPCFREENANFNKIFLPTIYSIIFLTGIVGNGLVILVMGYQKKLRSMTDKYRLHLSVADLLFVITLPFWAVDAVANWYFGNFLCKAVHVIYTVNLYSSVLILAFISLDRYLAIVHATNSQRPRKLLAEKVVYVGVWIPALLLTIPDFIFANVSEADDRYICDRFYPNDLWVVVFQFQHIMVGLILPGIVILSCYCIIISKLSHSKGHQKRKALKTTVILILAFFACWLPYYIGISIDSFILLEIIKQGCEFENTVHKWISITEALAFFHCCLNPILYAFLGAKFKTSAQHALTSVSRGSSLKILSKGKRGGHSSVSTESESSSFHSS

For the compound `N=C(NCCCNCCCCN(CCCNC(=N)Nc1cccc2ccccc12)C(=N)Nc1cccc2ccccc12)Nc1cccc2ccccc12` [spermine tris-1-NapG, spermine tris-1-naphthylguanide], the “inhibition in MTS dye reduction” value in the series with H9 is “no significant inhibition”. The “fold higher CXCR4 affinity than the previously published phenylguanides” value at CXCR4 [1] turned out to be 5 fold. For the same compound, the “inhibition of anti-CD4 mAb Sim.2 binding” value on CD4 is given as “not anti-CD4”. Also, at CXCR4 [2], the “inhibition of binding of anti-CXCR4 mAb 12G5” value is recorded as “completely inhibited”, the “inhibition of binding of anti-CXCR4 mAb 44708” value is “only partly inhibited”, the “inhibition of binding of anti-CXCR4 mAb 44716” value is recorded as “completely inhibited” and the “inhibition of binding of anti-CXCR4 mAb 44717” value is “only partly inhibited”. At CXCR4 [2], the “blocking of anti-CXCR4 mAb 44716 binding” value was “most effective” and the “inhibition of anti-CXCR4 mAb 12G5 binding” value is listed as “inhibits anti-CXCR4 binding”. Further, in the series with PHA blast cultures, the “inhibition in MTS dye reduction” value is on record as “no significant inhibition”. In addition, in the series on TZM-bl, the “inhibition in MTS dye reduction” value is recorded as “no significant inhibition”. Also, the “inhibition of a panel of four X4-tropic viruses” value in the series on X4 strains of HIV-1 is “all were inhibited at submicromolar concentrations”.

`N=C(NCCCNCCCCN(CCCNC(=N)Nc1ccc2ccccc2c1)C(=N)Nc1ccc2ccccc2c1)Nc1ccc2ccccc2c1` [spermine tris-2-NapG, spermine tris-2-naphthylguanide]: the “blocking of anti-CXCR4 mAb 44716 binding” value at CXCR4 [2] was “next best”.

In the case of `NCCCNCCCCNCCCN` [spermine, reference compound], on CXCR4 [2], the “inhibition of binding of anti-CXCR4 mAb 12G5” value is given as “No inhibition”, the “inhibition of binding of anti-CXCR4 mAb 44708” value is “No inhibition”, the “inhibition of binding of anti-CXCR4 mAb 44716” value was “No inhibition” and the “inhibition of binding of anti-CXCR4 mAb 44717” value is given as “No inhibition”. On CXCR4 [2], the “inhibition of anti-CXCR4 mAb 12G5 binding” value was “does not inhibit”.
